Test results reported in BigSolDB 2.1.

CC(=O)Nc1ccc(O)cc1
solubility (mole fraction)
Settings	293.2 K	298.2 K	303.2 K	308.2 K	313.2 K
in acetonitrile	0.00682	0.00805	0.00935	0.0107	0.0118
in water	0.00164	0.00202	0.00229	0.00284	0.00313
